This is an account of results in PMC9138389, “The Tarantula Toxin ω-Avsp1a Specifically Inhibits Human CaV3.1 and CaV3.3 via the Extracellular S3-S4 Loop of the Domain 1 Voltage-Sensor” (Biomedicines, 2022).

Where a SMILES comes first, the peptide text is derived from it. Bridges are numbered along the chain shown (N, C = ends).

By inhibition is commonly meant the drop in the measured response relative to a control, in per cent. Broadly, the IC50 is the midpoint of a concentration-inhibition curve.

In one data set the test system is CaV3. The note with it: cited from earlier work. The text has this:
(§1) It is well documented that the three CaV3 subtypes participate differentially in a variety of physiological and pathological conditions. Selective pharmacological inhibition is therefore important for dissecting the pathophysiological functions of CaV3 channel subtypes and for the development of therapeutically useful subtype-selective inhibitors.

The next data set concerns patients. Particulars: used clinically as anti-epileptic drugs; cited from earlier work.
Excerpt: as §1

For another data set, the target named is T1, CaV3.1 (Homo sapiens, UniProt O43497).
T1 construct: expressed in transfected cells; host or cells: HEK-293
The data set can be described thus: Whole-cell voltage-clamp of CaV3.1 expressed in HEK-293 cells. Type of data set: cell-based. As for the experimental part: (§2) Human embryonic kidney (HEK) 293 cells were grown in Dulbecco’s modified Eagle’s medium (DMEM) containing 5% fetal bovine serum and penicillin/streptomycin at 37 °C in a 5% CO2 incubator. Cells were transiently transfected with 3 μg plasmid DNA using the calcium-phosphate method. Plasmids of Cav3.1, Cav3.2 or Cav3.3 were separately transfected into three individual plates of HEK-293 cells. After transfection, cells were incubated at 37 °C for 48 h prior to whole-cell voltage-clamp recordings.
(§3) Patch pipettes with a tip resistance of 2.8~3.5 MΩ were pulled from borosilicate glass capillary tubes (Warner Instruments, Holliston, MA, USA) using a P-97 Flaming-Brown type micropipette puller (Sutter Instrument, Novato, CA, USA). Ionic currents were recorded using an Axon Multiclamp 700B microelectrode amplifier (Molecular Devices, San Jose, CA, USA). The sampling frequency for acquisition was 50 kHz and data were low-pass filtered at 2 kHz. Voltage and current commands and digitisation of membrane voltages and currents were controlled using a Digidata 1440A interfaced with Clampex 10.4 (Molecular Devices, San Jose, CA, USA). Data were analysed using pCLAMP10.4 software (Molecular Devices, San Jose, CA, USA).
(§4) To measure CaV3 currents, cells were incubated with the following bath solution (in mM): 145 TEA-Cl, 5 CaCl2, 3 CsCl, 1 MgCl2, 5 glucose, and 10 HEPES, adjusted to pH 7.4 with TEA-OH, osmolarity ~300 mOsm. The pipette solution was as follows (in mM): 130 CsCl, 20 HEPES, 10 EGTA, 5 MgCl2, 3 Mg-ATP, and 0.3 Tris-GTP, adjusted to pH 7.3 with CsOH, osmolarity ~310 mOsm. All recordings were performed at room temperature (21–24 °C). For Cav3.1- or Cav3.2-transfected cells, their membrane potentials were initially held at −90 mV for 20 ms and then depolarized to −30 mV for 150 ms. […] The peak values of Cav3 currents were recorded before and after addition of venom fractions or synthetic peptide. […] The inhibition was calculated by dividing the toxin-reduced peak amplitudes by the peak amplitudes before additions of the toxin.

For the next data set, the target named is T2, CaV3.2 (Homo sapiens, UniProt O95180).
T2 construct: expressed in transfected cells; host or cells: HEK-293
T2 sequence (O95180 whole entry): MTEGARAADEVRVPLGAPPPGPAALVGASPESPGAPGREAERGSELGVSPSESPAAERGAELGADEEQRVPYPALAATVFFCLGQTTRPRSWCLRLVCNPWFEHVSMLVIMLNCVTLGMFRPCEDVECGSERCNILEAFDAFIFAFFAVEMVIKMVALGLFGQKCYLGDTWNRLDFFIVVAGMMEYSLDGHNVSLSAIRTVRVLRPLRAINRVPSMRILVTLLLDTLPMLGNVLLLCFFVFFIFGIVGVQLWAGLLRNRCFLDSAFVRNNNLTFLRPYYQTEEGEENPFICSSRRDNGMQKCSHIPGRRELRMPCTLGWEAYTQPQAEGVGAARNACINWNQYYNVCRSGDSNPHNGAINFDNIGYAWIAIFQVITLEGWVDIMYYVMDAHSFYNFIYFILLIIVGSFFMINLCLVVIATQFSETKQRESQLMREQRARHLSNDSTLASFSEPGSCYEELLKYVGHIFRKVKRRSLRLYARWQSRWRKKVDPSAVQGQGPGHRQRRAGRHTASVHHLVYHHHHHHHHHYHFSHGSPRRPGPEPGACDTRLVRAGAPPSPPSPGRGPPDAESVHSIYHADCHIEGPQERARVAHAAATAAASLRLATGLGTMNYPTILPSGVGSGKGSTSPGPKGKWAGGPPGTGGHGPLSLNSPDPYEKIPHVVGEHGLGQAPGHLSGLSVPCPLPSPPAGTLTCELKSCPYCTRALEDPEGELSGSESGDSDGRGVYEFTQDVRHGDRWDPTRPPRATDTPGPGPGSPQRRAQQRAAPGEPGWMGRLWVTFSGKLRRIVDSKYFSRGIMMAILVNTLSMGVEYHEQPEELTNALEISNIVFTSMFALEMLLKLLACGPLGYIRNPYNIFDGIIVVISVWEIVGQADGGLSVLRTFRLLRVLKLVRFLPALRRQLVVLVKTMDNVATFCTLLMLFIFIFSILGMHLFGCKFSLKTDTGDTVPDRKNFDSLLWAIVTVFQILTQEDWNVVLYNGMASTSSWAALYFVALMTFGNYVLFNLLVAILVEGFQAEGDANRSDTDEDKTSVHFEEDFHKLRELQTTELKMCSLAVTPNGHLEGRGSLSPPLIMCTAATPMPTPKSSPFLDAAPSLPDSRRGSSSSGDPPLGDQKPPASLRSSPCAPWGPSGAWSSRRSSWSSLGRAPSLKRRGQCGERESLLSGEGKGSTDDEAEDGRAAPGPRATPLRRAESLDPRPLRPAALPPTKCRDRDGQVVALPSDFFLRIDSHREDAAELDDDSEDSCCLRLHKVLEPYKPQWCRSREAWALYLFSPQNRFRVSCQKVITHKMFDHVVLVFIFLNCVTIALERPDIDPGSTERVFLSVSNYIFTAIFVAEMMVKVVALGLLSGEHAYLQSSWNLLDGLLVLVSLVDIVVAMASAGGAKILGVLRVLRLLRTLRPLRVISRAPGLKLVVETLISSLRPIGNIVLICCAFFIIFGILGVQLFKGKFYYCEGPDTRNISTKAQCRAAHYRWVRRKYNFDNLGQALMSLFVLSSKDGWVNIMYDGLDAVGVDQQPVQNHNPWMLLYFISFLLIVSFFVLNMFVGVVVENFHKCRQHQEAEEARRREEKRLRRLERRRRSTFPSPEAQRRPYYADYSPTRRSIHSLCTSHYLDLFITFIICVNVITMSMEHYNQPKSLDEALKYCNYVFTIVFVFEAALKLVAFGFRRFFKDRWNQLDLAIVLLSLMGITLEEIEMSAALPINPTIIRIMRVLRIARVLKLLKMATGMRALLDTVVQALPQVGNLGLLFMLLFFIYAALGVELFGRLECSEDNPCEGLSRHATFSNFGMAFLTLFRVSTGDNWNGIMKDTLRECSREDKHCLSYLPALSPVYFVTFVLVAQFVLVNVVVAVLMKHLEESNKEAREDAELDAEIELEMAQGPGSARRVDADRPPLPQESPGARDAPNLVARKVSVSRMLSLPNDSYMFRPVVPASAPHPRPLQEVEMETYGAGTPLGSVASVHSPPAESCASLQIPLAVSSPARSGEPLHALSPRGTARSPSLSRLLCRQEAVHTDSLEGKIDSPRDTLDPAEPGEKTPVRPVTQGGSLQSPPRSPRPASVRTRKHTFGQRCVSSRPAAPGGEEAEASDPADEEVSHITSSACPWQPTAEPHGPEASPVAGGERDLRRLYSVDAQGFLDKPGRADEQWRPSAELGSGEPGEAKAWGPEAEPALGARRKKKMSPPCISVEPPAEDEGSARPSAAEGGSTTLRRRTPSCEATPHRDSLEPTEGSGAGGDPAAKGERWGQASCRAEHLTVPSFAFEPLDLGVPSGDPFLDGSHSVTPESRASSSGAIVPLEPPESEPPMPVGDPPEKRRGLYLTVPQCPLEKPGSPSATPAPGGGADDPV
Nature of the data set: Whole-cell voltage-clamp of CaV3.2 expressed in HEK-293 cells. Type of data set: cell-based. The protocol: as §2, §3, §4

For a further data set, the target named is T3, CaV3.3 (Homo sapiens, UniProt Q9P0X4).
T3 construct: expressed in transfected cells; host or cells: HEK-293
T3 sequence (Q9P0X4 whole entry): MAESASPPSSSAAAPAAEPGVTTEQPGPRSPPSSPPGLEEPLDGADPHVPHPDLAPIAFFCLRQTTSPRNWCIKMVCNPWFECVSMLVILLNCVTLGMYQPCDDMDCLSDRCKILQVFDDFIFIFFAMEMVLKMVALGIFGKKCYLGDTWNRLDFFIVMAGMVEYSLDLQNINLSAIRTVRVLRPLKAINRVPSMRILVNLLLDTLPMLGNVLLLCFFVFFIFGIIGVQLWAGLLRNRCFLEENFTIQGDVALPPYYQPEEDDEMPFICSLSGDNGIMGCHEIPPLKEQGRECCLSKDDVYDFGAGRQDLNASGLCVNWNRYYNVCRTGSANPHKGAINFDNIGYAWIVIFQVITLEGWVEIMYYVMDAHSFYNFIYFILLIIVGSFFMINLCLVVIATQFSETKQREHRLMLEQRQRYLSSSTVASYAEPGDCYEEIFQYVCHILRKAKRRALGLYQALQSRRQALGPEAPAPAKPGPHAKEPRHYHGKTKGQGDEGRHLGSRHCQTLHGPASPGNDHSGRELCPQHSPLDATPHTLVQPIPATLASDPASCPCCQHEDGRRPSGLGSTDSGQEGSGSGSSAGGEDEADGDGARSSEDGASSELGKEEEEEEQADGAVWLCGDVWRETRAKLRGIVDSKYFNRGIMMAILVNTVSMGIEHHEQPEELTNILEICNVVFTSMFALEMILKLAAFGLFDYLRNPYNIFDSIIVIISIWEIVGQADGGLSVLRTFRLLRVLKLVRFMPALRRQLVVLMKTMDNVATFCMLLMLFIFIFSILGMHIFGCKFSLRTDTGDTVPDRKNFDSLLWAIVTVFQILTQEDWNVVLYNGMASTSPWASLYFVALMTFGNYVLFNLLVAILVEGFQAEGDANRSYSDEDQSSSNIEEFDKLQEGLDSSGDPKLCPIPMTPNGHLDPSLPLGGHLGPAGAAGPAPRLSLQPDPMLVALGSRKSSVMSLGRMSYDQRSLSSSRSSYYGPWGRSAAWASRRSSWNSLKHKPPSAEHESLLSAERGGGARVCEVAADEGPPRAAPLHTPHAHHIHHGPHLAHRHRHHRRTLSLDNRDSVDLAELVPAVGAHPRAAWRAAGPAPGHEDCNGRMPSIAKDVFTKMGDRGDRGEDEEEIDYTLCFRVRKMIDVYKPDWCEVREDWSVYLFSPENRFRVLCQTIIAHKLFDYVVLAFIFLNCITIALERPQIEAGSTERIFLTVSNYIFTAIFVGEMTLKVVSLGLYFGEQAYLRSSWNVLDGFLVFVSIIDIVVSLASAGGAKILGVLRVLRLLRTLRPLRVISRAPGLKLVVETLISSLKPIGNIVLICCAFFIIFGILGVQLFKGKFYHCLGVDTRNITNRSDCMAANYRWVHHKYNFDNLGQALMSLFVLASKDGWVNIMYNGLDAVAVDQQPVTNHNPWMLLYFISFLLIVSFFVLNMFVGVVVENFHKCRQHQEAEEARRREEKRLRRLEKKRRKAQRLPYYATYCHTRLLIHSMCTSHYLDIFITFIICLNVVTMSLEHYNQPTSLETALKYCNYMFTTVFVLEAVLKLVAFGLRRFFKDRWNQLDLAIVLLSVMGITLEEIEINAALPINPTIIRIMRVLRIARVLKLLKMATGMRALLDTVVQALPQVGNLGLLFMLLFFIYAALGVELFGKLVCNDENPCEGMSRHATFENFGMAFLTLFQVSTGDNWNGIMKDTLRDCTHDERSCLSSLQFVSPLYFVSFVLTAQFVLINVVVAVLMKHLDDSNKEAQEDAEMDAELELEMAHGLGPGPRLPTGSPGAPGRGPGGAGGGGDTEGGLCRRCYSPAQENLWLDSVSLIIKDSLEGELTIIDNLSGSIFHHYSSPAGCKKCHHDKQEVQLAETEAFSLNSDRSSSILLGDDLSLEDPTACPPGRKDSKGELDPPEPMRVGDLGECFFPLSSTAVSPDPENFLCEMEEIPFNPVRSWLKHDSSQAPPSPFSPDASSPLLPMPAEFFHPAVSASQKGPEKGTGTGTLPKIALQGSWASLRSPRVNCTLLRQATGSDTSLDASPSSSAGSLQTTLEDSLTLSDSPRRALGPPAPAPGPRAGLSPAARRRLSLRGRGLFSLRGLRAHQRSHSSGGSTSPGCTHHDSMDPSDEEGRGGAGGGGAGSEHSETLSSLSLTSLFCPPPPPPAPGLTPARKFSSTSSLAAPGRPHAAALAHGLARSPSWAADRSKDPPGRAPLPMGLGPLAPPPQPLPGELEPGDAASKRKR
The data set can be described thus: Whole-cell voltage-clamp of CaV3.3 expressed in HEK-293 cells. Type of data set: cell-based. The protocol:
as §2, §3, §4

Data set [1] can be described thus: Solubility limit in electrophysiology. The note with it: synthetic ω-Avsp1a; working concentration could not be increased above 25 μM. Type of data set: physicochemical.
The mark [2] stands for this setting: synthetic ω-Avsp1a, 10, 5, 1, and 0.1 μM, Hill equation fit, HEK-293.

Consider `CCC1(C)CC(=O)NC1=O` (centres unmarked) [ethosuximide], for which the CaV3 subtype specificity result in the data set with CaV3 was “not subtype-specific”. For the same compound, the “clinical effectiveness as anti-epileptic” value with patients is listed as “not effective in all patients”.

Turning to `NS(=O)(=O)Cc1noc2ccccc12` [zonisamide], the CaV3 subtype specificity result with CaV3 was “not subtype-specific”. Further, the “clinical effectiveness as anti-epileptic” value with patients is on record as “not effective in all patients”.

Consider `CC(C)C[C@@H]1NC(=O)[C@H](Cc2ccccc2)NC(=O)[C@H](CCCCN)NC(=O)[C@H](Cc2c[nH]cn2)NC(=O)[C@@H](NC(=O)[C@H](CC(=O)O)NC(=O)CN)CSSC[C@@H]2NC(=O)[C@@H]3CSSC[C@@H](C(=O)N[C@H](C(=O)N[C@@H](Cc4c[nH]c5ccccc45)C(=O)N[C@@H](CC(=O)O)C(=O)N[C@@H](Cc4c[nH]c5ccccc45)C(=O)N[C@H](C(=O)N[C@H](C(N)=O)C(C)C)[C@@H](C)O)C(C)C)NC(=O)[C@H](Cc4c[nH]c5ccccc45)NC(=O)CNC(=O)[C@H](Cc4c[nH]cn4)NC(=O)[C@H](CCCCN)NC(=O)[C@H](CCCNC(=N)N)NC(=O)[C@H](CO)NC(=O)[C@H](CSSC[C@H](NC(=O)[C@H](Cc4c[nH]c5ccccc45)NC(=O)CNC1=O)C(=O)N[C@@H](CCCNC(=N)N)C(=O)NCC(=O)N[C@@H](CCC(=O)O)C(=O)N1CCC[C@H]1C(=O)N[C@@H](CC(=O)O)C(=O)N1CCC[C@H]1C(=O)N3)NC(=O)[C@H](CO)NC(=O)[C@H](CC(C)C)NC(=O)[C@H](Cc1c[nH]cn1)NC(=O)[C@H](CCC(=O)O)NC2=O` [ω-Avsp1a, ω-theraphotoxin-Avsp1a] (H-GDCHKFLGWCRGEPDPCCEHLSCSRKHGWCVWDWTV-NH2; disulfide 3-18, 10-23, 17-30), for which the inhibition at 4.1 µM is 90% on CaV3.1 (HEK293, pH 7.4, native ω-Avsp1a, 4.1 μM, HEK-293, whole-cell, -90 to -30 mV, room temperature (21–24 °C), pH 7.4, 5 mM CaCl2, n = 5, read-out: current inhibition); 25% on CaV3.2 (HEK293, pH 7.4, native ω-Avsp1a, 4.1 μM, HEK-293, whole-cell, -90 to -30 mV, room temperature (21–24 °C), pH 7.4, 5 mM CaCl2, n = 5, p < 0.001 vs. Cav3.1 and Cav3.3, read-out: current inhibition); 90% at CaV3.3 (HEK293, pH 7.4, native ω-Avsp1a, 4.1 μM, HEK-293, whole-cell, -90 to -20 mV, room temperature (21–24 °C), pH 7.4, 5 mM CaCl2, n = 3, read-out: current inhibition). The inhibition at 10 µM at CaV3.1 (HEK293, synthetic ω-Avsp1a, 10 μM, HEK-293, whole-cell, -90 to -30 mV, n = 9, read-out: current inhibition) stood at 90%; at CaV3.3 (HEK293, synthetic ω-Avsp1a, 10 μM, HEK-293, whole-cell, -90 to -20 mV, n = 9, read-out: current inhibition) it was 90%. Also, the figures for the half-maximal inhibitory concentration (IC50) at CaV3.1 (setting [2]), against CaV3.2 and against CaV3.3 (setting [2]) were 5.06 ± 0.16 µM, more than 25 µM and 4.32 ± 1.21 µM, respectively. The inhibition at 25 µM at CaV3.2 (HEK293, synthetic ω-Avsp1a, 25 μM (section 3.6), read-out: current inhibition) came to 31%. Also, in data set [1], the solubility entry is “limited solubility”.
